Measured values published in US20260139017A1, “COMPOSITIONS AND METHODS USING REELIN IN ALZHEIMER'S DISEASE” (The General Hospital Corporation, priority 2022, published 2026).
“Also recorded” adds a separate entry of the source.

How the values were obtained:
[1] = target: T1, VLDLr (Homo sapiens, UniProt P98155); experiment: ELISA cell-free binding of RELN variants to VLDLr
T1 construct: purchased R&D 8444-VL
Method: Enzyme-linked immunosorbent assay (ELISA) was used to quantify changes in binding of RELN variants (media-derived full-length or CTR-RELN) to either VLDLr or ApoEr2 following an optimized version of a previously published protocol (6). Briefly, ELISA strips (DY008, R&D Systems) were coated with one ng/μL (100 μL/well) of VLDLr (8444-VL, R&D) or ApoEr2 (TP320903, OnGene) receptors diluted in 25 mM Tris HCl, 140 mM NaCl, […], two mM CaCl2), pH 7.4 (TBS-C buffer). After 18 h at four ° C. incubation, plates were blocked one h with three % BSA (22070008-6, Bioworld), 0.05% Tween-20 (Sigma Aldrich) TBS-C buffer. We assessed binding via incubation with 100 μL/well of serial dilutions of recombinant RELN protein (Ser1221-Gln2666, 8546-MR-050, R&D) or RELN variants in TBS-C buffer for one hour at room temperature. For detection, we used goat anti-mouse RELN primary antibody (LS-C793521-100, LS-Bio, 1:2,000, 100 μL/well) as primary antibody for one h at R.T. and (1:10,000; 100 μL/well, donkey anti-goat IgG H&L, HRP, ab6885, Abcam) as secondary antibody for 30 min. at R.T. Between each of the previous steps, plates were washed four times with TBS-C buffer (200 μL/well). Plates were washed three times prior to initiating the colorimetric reaction (DY008, R&D Systems). Stop solution (50 μL/well, DY008, R&D Systems) was added upon five min. incubation and the absorbance of the samples was measured at 450 nm using the Synergy 2 microplate reader (BioTek Instruments). Processing and analysis of the data was done using Gen5 1.11 software and GraphPad Prism, respectively.

[2] = target: T2, Aβ42 (Homo sapiens, UniProt P05067); experiment: Thioflavin T (ThT) Aβ aggregation assay; type: biochemical; conditions: Aβ42 55 μM, 10 μM peptide, vs Aβ alone
T2 construct: SensoLyte ThT O-Amyloid (1-42) Aggregation kit
T2 sequence (P05067 672-713 limits assumed): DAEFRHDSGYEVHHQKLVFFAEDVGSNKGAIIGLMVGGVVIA
Method: Therefore, the ThT assay can be used to quantify AB aggregation using previously developed methods (40).
We incubated CTR-RELN with Aβ and monitored aggregation using a ThioflavinT fluorescence assay normalized to the maximum ThT emission of Aβ only. We also assayed Aβ in the presence of morin, a known inhibitor (41), as a […]. Long and short WT and H3447R RELN CTR peptides were included to better understand the potential role of the H3447R mutation in amyloid pathology (FIGS. 14 and 15. Negative controls included long and short RELN CTR peptides with neutrally charged AAs (histidines) in place of basic AAs in the alpha- and beta-GAG binding sites.
A Thioflavin T (ThT) assay was also performed using synthetic Reelin peptides to assess the differential effects of these proteins on Aβ42 aggregation in vitro using Thioflavin T (SensoLyte ThT O-Amyloid (1-42) Aggregation kit, catalog no. ΔS-72214). Aβ42 was added to a final concentration of 55 μM in solutions of 10 μM of Reelin peptide variants in a transparent, no-binding 96-well plate. Samples were then mixed with 2 mM Thioflavin T dye and fluorescence was read at excitation wavelength/emission wavelength (Ex/Em)=440/484 nm at intermittent time intervals over 2 h. The plate was kept at 37° C. with 15 s shaking between reads. […] In general, it appears that the RELN Cterm domain is highly unstructured. […] If the mini-RELN includes the C-term domain only without a receptor binding domain then the protection will not involve signaling, but will still involve direct interactions with tau. If the mini-RELN includes the C-term domain and the receptor binding domain, it will have at least two protective mechanisms, namely RELN signaling and direct interactions with tau.

[3] = Heparin-sepharose affinity column chromatography, NaCl step gradient; type: binding
Method: We tested changes in binding to heparin of RELN variants chromatographically using an optimized version of a protocol previously published by our laboratory (1). Briefly, after equilibration of the heparin column (BioVision 6554-1) at R.T., columns were washed with five volumes of degassed 20 mM TRIS-HCl buffer (pH 7.5). Recombinant C-terminus RELN peptides were produced and purified by Innovagen (Sweden): (WT) […](SEQ ID NO:56), and (H3447R) […](SEQ ID NO:53). One mL of 50 μg/mL peptide (H3447 or WT, and H3447R) was recycled through the column five times and the last flow through collected for further analysis. The column was washed five times with the same buffer and the protein eluted using a 0.05 M step gradient of NaCl in 20 mM Tris-HCl (0-1M, one mL per fraction). To ensure the complete release of the protein, the column was washed with five M NaCl 20 mM Tris-HCl. Three independent experiments were conducted for C-terminus RELN WT and H3447R. All eluted fractions were analyzed spectroscopically by reading the absorbance at 280 nm using Nanodrop 2000 Spectrophotometer. Blank corrected fractions were subsequently analyzed using GraphPad Prism 8.
To assess Reelin-heparin binding affinity, Reelin variants were run on a heparin column with steps of 0.05M in a range of 0.05-1M NaCl over 20 1 mL column volumes in 20 mM Tris HCl, as described in Arboleda et. al 2019 (2). Sample fractions were eluted at an increasing NaCl step size to determine the ionic strength needed to disrupt the binding between Reelin and heparin. Therefore, the stronger the interaction, the higher concentration of salt would be needed to disrupt the bond.

Q: Which “binding to VLDLr” value [1] does the source give for “RKQNYMMNFSRQHGLRRFYNRRRRSLRRYP [CTR-RELN H3447R]” here?
A: The value was “unable to bind directly”.

Q: What about the “Aβ aggregation (ThT fluorescence)” value ([2]; listed as COLBOS variant) of the same sequence?
A: Its value is “enhanced this effect”.

Q: And the “Aβ aggregation (ThT fluorescence)” value ([2]; listed as H3447R)?
A: Its value is “did not significantly affect Aβ aggregation compared to WT”.

Q: What about the “Aβ aggregation (ThT fluorescence)” value ([2]; listed as RELN H3447R) of the same sequence?
A: The value was “similarly effective at inhibiting ThT aggregation as WT”.

Q: And the “NaCl concentration of peak eluted fraction from heparin column” value ([3]; 0.05 M NaCl step gradient in 20 mM Tris HCl, UV 280 nm)?
A: The value was 0.7 M NaCl.

Q: What about the “binding to and release from heparin column” value ([3]; affinity chromatography, NaCl gradient) of the same sequence?
A: Its value is “bound to heparin; also recorded: required higher NaCl salt concentrations to be released”.
